The values that follow come from ChEMBL document CHEMBL5120905, “Examining the Role of the Linker in Bitopic N6-Substituted Adenosine Derivatives Acting as Biased Adenosine A1 Receptor Agonists” (J Med Chem, 2022).

Format in all cases: functional, cell-based
The target in one assay is Adenosine receptor A2a (Homo sapiens, UniProt P29274). The experiment in a line: Agonist activity at human A2A receptor expressed in Flp-In-CHO cells assessed as cAMP accumulation incubated for 30 mins by LANCE cAMP assay. For orientation: Cyclic AMP is a second messenger, typically raised through Gs and lowered through Gi signalling.
The next assay addresses T1, Adenosine receptor A2b (Homo sapiens, UniProt P29275).
T1 sequence (P29275 whole entry): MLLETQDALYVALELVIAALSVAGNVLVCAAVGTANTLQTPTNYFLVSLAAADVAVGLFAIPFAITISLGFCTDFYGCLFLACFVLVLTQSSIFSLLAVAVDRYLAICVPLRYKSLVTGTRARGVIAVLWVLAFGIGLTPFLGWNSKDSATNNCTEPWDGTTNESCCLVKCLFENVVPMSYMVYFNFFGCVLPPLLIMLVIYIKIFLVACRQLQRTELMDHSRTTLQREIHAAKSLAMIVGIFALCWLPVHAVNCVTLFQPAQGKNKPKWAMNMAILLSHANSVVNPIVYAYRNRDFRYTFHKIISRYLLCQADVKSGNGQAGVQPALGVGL
The experiment in a line: Agonist activity at human A2B receptor expressed in Flp-In-CHO cells assessed as cAMP accumulation incubated for 10 mins in presence of forskolin by LANCE cAMP assay.

Assay [1] addresses T2, Adenosine receptor A1 (Homo sapiens, UniProt P30542).
T2 sequence (P30542 whole entry): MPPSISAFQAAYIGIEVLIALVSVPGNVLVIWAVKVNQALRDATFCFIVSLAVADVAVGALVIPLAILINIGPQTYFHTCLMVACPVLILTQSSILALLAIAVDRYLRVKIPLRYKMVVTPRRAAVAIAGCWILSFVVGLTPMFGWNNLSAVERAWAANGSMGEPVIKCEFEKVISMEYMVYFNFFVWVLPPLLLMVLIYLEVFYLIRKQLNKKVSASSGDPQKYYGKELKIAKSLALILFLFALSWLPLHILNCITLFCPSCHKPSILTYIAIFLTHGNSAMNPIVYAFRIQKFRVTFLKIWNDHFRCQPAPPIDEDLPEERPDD
The experiment in a line: Agonist activity at human A1 receptor expressed in Flp-In-CHO cells assessed as inhibition of forskolin stimulated cAMP accumulation incubated for 30 mins by LANCE cAMP assay.

Assay [2] deals with T2, Adenosine receptor A1. The assay can be described thus: Agonist activity at human A1 receptor expressed in Flp-In-CHO cells assessed as stimulation of calcium mobilization by calcium mobilization assay. In general terms: Calcium flux is commonly read through the fluorescence of an indicator in the cells.

Adenosine receptor A2a, sequence (P29274 whole entry): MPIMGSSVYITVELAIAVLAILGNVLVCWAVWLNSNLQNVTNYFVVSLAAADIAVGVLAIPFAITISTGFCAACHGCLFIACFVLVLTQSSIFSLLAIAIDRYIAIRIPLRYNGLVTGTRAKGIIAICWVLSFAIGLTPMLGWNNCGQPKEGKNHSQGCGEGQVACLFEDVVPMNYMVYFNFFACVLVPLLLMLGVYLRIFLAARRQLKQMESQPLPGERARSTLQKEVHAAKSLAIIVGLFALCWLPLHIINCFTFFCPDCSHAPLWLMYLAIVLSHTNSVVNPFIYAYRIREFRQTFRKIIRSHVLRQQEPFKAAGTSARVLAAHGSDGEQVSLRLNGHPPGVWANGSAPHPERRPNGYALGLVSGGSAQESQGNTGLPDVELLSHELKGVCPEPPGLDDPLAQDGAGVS

On to `Nc1sc(-c2ccc(C(=O)NCCCCCCNc3ncnc4c3ncn4[C@@H]3O[C@H](CO)[C@@H](O)[C@H]3O)cc2)c(-c2cccc(C(F)(F)F)c2)c1C(=O)c1ccccc1`, for which, at Adenosine receptor A2a, the concentration giving a half-maximal response (EC50) was 389 nM.

Regarding `Nc1sc(-c2ccc(C(=O)NCCc3ccc(CCNc4ncnc5c4ncn5[C@@H]4O[C@H](CO)[C@@H](O)[C@H]4O)cc3)cc2)c(-c2cccc(C(F)(F)F)c2)c1C(=O)c1ccccc1`, the concentration giving a half-maximal response (EC50) is 52.5 nM at Adenosine receptor A2b, 550 nM at Adenosine receptor A1 [1], 363 nM on Adenosine receptor A2a and greater than 10000 nM on Adenosine receptor A1 [2].

`Nc1sc(-c2ccc(C(=O)NCCC#Cc3ccc(Nc4ncnc5c4ncn5[C@@H]4O[C@H](CO)[C@@H](O)[C@H]4O)cc3)cc2)c(-c2cccc(C(F)(F)F)c2)c1C(=O)c1ccccc1`: the concentration for a half-maximal effect (EC50) on Adenosine receptor A2a is 741 nM.

By EC50 is commonly meant the concentration at which the effect is half-maximal.
